Measurements taken from patent publication US20060069132A1, “Azolecarboxamide herbicides” (priority 2004, published 2006).

Legend:
[1] = tested on: barnyardgrass; test: Test A pre-/postemergence herbicide test; type: in vivo, Echinochloa crus-galli
Procedure, shortened: (§1)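 Pre: seeded sandy loam, directed soil spray, compound in non-phytotoxic solvent + surfactant. Post: 1–2-leaf plants (2–10 cm), sprayed to runoff. Greenhouse ~10 d; visual injury vs untreated, 0–100 scale.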

[2] = tested on: large crabgrass; test: Test A pre-/postemergence herbicide test; type: in vivo, Digitaria sanguinalis
Procedure, shortened: as §1

[3] = tested on: redroot pigweed; test: Test A pre-/postemergence herbicide test; type: in vivo, Amaranthus retroflexus
Procedure, shortened: as §1

[4] = tested on: velvetleaf; test: Test B pre-/postemergence herbicide test; type: in vivo, Abutilon theophrasti
Procedure, shortened: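 Formulation: non-phytotoxic solvent mix with surfactant. Timing: preemergence on seed and postemergence on 2–18 cm plants, applied concurrently. Readout after 13–15 d greenhouse: visual 0–100 control rating against controls.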

[5] = tested on: bermudagrass; test: Test C pre-/postemergence herbicide test; type: in vivo, Cynodon dactylon; conditions: for Plant response rating (0 = no effect, 100 = complete control), Bermudagrass: 62 g ai/ha
Procedure, shortened: (§2)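 Visual injury scores run from 0 (no effect) to 100 (complete control), assessed relative to untreated controls 12 to 14 days after treatment in the greenhouse. Chemicals were formulated in a non-phytotoxic solvent mixture with surfactant and applied to soil after planting or to emerged plants at the 1- to 4-leaf stage.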

[6] = tested on: cocklebur; test: Test C pre-/postemergence herbicide test; type: in vivo, Xanthium strumarium; conditions: for Cocklebur plant response rating: 500 g ai/ha
Procedure, shortened: as §2

[7] = tested on: johnsongrass; test: Test C pre-/postemergence herbicide test; type: in vivo, Sorghum halepense; conditions: for Johnsongrass plant response rating: 500 g ai/ha
Procedure, shortened: as §2

[8] = tested on: eastern black nightshade; test: Test C pre-/postemergence herbicide test; type: in vivo, Solanum ptycanthum; conditions: for Plant response rating (0 = no effect, 100 = complete control), Nightshade: 62 g ai/ha; for Plant response rating (0 = no effect, 100 = complete control), Nightshade / Plant response rating, Nightshade: preemergence; for Plant response rating, Nightshade: visual, 12 to 14 days
Procedure, shortened: as §2

[9] = tested on: soybean; test: Test C pre-/postemergence herbicide test; type: in vivo, Glycine max; conditions: for Soybean plant response rating: 500 g ai/ha
Procedure, shortened: as §2

[10] = Postemergence, 500 g ai/ha, 0 to 100 scale, 0 no effect, 100 complete control
[11] = Postemergence, 2000 g ai/ha, 0 to 100 scale, 0 no effect, 100 complete control
[12] = Preemergence, 500 g ai/ha, visual rating, 0 to 100 scale (0 no effect, 100 complete control)
[13] = Preemergence, 2000 g ai/ha, 0 to 100 scale, 0 no effect, 100 complete control
[14] = preemergence, 125 g ai/ha, 0 to 100 scale, 0 is no effect, 100 is complete control
[15] = 125 g ai/ha, scale 0 (no effect) to 100 (complete control), visual, 12 to 14 days, preemergence
[16] = 250 g ai/ha, scale 0 to 100 (0 no effect, 100 complete control), visual, 12 to 14 days, preemergence
[17] = Postemergence, 125 g ai/ha, scale 0 to 100, 0 no effect, 100 complete control
[18] = Preemergence, 500 g ai/ha, scale 0 to 100, 0 no effect, 100 complete control
[19] = Postemergence, 250 g ai/ha, scale 0 to 100, 0 no effect, 100 complete control
[20] = Preemergence, scale 0 to 100, 0 no effect, 100 complete control
[21] = postemergence, 62 g ai/ha, scale 0 to 100
[22] = 125 g ai/ha, scale 0 (no effect) to 100 (complete control)
[23] = Postemergence, 250 g ai/ha, 0 to 100 scale, 0 no effect, 100 complete control
[24] = Postemergence, 1000 g ai/ha, 0 to 100 scale, 0 no effect, 100 complete control
[25] = Preemergence, 1000 g ai/ha, visual rating, 0 to 100 scale (0 no effect, 100 complete control)
[26] = preemergence, 250 g ai/ha, visual injury, 0 to 100 scale (0 no effect, 100 complete control)

For `C=CCNC(=O)c1cccc(NC(=O)c2cc(C(C)(C)C)nn2CC)c1` [Compound 46], the “Plant response rating, Barnyardgrass” value [1, 10] was 100, the “Plant response rating, Barnyardgrass” value [1, 11] was 100 and the “Barnyardgrass plant response rating” value [1, 12] was 90. For the same compound, the “Barnyardgrass plant response rating” value [1, 13] was 100, the “Plant response rating, Crabgrass, Large” value [2, 10] was 75 and the “Plant response rating, Crabgrass, Large” value [2, 11] was 90. For the same compound, the “Crabgrass, Large plant response rating” value [2, 12] was 65, the “Crabgrass, Large plant response rating” value [2, 13] was 90 and the “Plant response rating, Pigweed” value [3, 10] was 100. For the same compound, the “Plant response rating, Pigweed” value [3, 11] was 100, the “Pigweed plant response rating” value [3, 12] was 100 and the “Pigweed plant response rating” value [3, 13] was 100. The “Plant response rating, Velvetleaf” value ([4]; Postemergence, 500 g ai/ha, visual rating after 13 to 15 days, scale 0 (no effect) to 100 (complete control)) was 80, the “Velvetleaf plant response rating” value ([4]; Preemergence, 500 g ai/ha, scale 0 to 100) was 100 and the “Plant response rating, Velvetleaf” value [4, 14] was 50. For the same compound, the “Plant response rating (0 = no effect, 100 = complete control), Bermudagrass” value ([5]; preemergence) was 90, the “Plant response rating, Bermudagrass” value [5, 15] was 100 and the “Plant response rating, Bermudagrass” value [5, 16] was 100. The “Plant response rating, Bermudagrass” value [5, 17] was 100, the “Bermudagrass plant response rating” value [5, 18] was 100 and the “Plant response rating (0 = no effect, 100 = complete control), Cocklebur” value ([6]; 62 g ai/ha, preemergence) was 0. The “Plant response rating, Cocklebur” value [6, 15] was 40, the “Plant response rating, Cocklebur” value [6, 16] was 90 and the “Cocklebur plant response rating” value ([6]; Postemergence, scale 0 to 100) was 90. For the same compound, the “Plant response rating, Cocklebur” value [6, 17] was 70, the “Plant response rating, Cocklebur” value [6, 19] was 70 and the “Cocklebur plant response rating” value [6, 20] was 90. The “Plant response rating, Cocklebur” value [6, 21] was 60, the “Plant response rating (0 = no effect, 100 = complete control), Johnsongrass” value ([7]; 62 g ai/ha, preemergence) was 50 and the “Plant response rating, Johnsongrass” value [7, 15] was 80. The “Plant response rating, Johnsongrass” value [7, 16] was 90, the “Johnsongrass plant response rating” value ([7]; Postemergence, scale 0 to 100) was 90 and the “Plant response rating, Johnsongrass” value [7, 17] was 60. The “Johnsongrass plant response rating” value [7, 20] was 100, the “Plant response rating, Johnsongrass” value [7, 21] was 60 and the “Plant response rating (0 = no effect, 100 = complete control), Nightshade” value [8] was 90. For the same compound, the “Plant response rating, Nightshade” value [8, 22] was 100, the “Plant response rating, Nightshade” value ([8]; 250 g ai/ha, scale 0 to 100 (0 no effect, 100 complete control)) was 100 and the “Nightshade plant response rating” value [8, 18] was 100. For the same compound, the “Plant response rating (0 = no effect, 100 = complete control), Soybean” value ([9]; 62 g ai/ha, preemergence) was 0, the “Plant response rating, Soybean” value [9, 15] was 0 and the “Plant response rating, Soybean” value [9, 16] was 10. For the same compound, the “Soybean plant response rating” value ([9]; Postemergence, scale 0 to 100) was 100, the “Plant response rating, Soybean” value [9, 19] was 100 and the “Soybean plant response rating” value [9, 20] was 10. For the same compound, the “Plant response rating, Soybean” value [9, 21] was 100.
For `CCn1nc(C(C)(C)C)cc1C(=O)Nc1cccc(SC)c1` [Compound 131], the “Barnyardgrass plant response rating” value [1, 23] was 25, the “Plant response rating, Barnyardgrass” value [1, 24] was 60 and the “Barnyardgrass plant response rating” value [1, 25] was 50. For the same compound, the “Barnyardgrass plant response rating” value [1, 26] was 45, the “Crabgrass, Large plant response rating” value [2, 23] was 20 and the “Plant response rating, Crabgrass, Large” value [2, 24] was 40. For the same compound, the “Crabgrass, Large plant response rating” value [2, 25] was 85, the “Crabgrass, Large plant response rating” value [2, 26] was 20 and the “Pigweed plant response rating” value [3, 23] was 45. For the same compound, the “Plant response rating, Pigweed” value [3, 24] was 75, the “Pigweed plant response rating” value [3, 25] was 90 and the “Pigweed plant response rating” value [3, 26] was 40. For the same compound, the “Plant response rating, Velvetleaf” value ([4]; 500 g ai/ha, visual rating 0-100, 0 no effect, 100 complete control, preemergence) was 100, the “Velvetleaf plant response rating” value ([4]; postemergence, 125 g ai/ha, visual rating, scale 0 (no effect) to 100 (complete control)) was 10 and the “Velvetleaf plant response rating” value ([4]; postemergence, 500 g ai/ha, visual rating, scale 0 (no effect) to 100 (complete control)) was 40. For the same compound, the “Plant response rating, Velvetleaf” value [4, 14] was 50, the “Plant response rating, Bermudagrass” value ([5]; 31 g ai/ha, scale 0 to 100, 0 no effect, 100 complete control, last section of Table C (species set of preemergence test)) was 0 and the “Plant response rating (0 = no effect, 100 = complete control), Bermudagrass” value ([5]; preemergence) was 15. For the same compound, the “Plant response rating, Bermudagrass” value [5, 15] was 90, the “Plant response rating, Bermudagrass” value [5, 16] was 95 and the “Plant response rating (0 = no effect, 100 = complete control), Cocklebur” value ([6]; 62 g ai/ha, preemergence) was 0. The “Plant response rating, Cocklebur” value [6, 15] was 20, the “Plant response rating, Cocklebur” value [6, 16] was 25 and the “Plant response rating (0 = no effect, 100 = complete control), Johnsongrass” value ([7]; 62 g ai/ha, preemergence) was 15. For the same compound, the “Plant response rating, Johnsongrass” value [7, 15] was 40, the “Plant response rating (0 = no effect, 100 = complete control), Nightshade” value [8] was 55 and the “Plant response rating, Nightshade” value [8, 22] was 95. For the same compound, the “Plant response rating (0 = no effect, 100 = complete control), Soybean” value ([9]; 62 g ai/ha, preemergence) was 0 and the “Plant response rating, Soybean” value [9, 15] was 0.
